Measured values reported in patent EP0580161A1, “Prophylactic and therapeutic treatment of Alzheimer's disease” (THE McLEAN HOSPITAL CORPORATION, priority 1992, dated 1994).
Like-named read-outs stand apart in the source and are kept apart here. Residues, ends and D or L forms follow the SMILES beside them. *: point of attachment. Cbz = O=C(OCc1ccccc1)*

What was measured:
mouse = conditions: cited from earlier work
m-calpain = biological target: T1, m-calpain (Rattus norvegicus, UniProt Q07009); test: calpain inhibitory activity; assay type: biochemical; conditions: m-calpain extracted and purified from rat brain; read-out: calpain inhibitory activity IC₅₀
T1 construct: m-calpain which was extracted and purified from rat brain; from tissue; host or cells: rat brain
T1 sequence (Q07009 20-700 limits assumed): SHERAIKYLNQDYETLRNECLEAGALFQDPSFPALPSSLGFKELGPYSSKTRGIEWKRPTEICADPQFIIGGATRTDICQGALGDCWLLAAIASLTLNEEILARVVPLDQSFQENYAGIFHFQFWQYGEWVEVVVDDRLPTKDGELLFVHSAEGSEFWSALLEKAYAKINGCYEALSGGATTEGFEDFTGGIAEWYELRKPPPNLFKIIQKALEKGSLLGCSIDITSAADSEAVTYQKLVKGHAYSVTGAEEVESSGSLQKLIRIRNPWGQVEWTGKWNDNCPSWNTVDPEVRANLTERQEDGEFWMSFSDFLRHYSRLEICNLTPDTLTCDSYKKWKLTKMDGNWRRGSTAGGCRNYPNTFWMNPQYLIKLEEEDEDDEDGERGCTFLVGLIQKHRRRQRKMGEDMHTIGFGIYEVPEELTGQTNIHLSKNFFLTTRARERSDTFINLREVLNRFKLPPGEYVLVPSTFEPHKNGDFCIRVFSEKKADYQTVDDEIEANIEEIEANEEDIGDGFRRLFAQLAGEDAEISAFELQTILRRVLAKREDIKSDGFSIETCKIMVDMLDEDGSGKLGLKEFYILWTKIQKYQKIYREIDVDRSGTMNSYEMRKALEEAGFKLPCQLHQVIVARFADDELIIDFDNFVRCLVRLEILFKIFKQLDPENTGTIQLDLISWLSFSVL
T1 sequence (Q64537 1-270 partner): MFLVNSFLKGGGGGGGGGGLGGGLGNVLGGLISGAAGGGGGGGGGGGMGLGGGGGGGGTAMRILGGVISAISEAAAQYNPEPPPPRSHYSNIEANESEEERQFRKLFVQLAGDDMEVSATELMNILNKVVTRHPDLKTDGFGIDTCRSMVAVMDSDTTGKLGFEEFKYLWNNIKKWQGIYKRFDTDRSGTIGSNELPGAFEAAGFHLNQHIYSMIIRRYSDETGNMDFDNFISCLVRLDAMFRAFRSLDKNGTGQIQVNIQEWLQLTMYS
Method: According to the method previously described (Journal of Biological Chemistry, 259, 12489 (1984)), inhibitory activity of several compounds were determined with m-calpain which was extracted and purified from rat brain by means of the method described in Journal of Biological Chemistry, 259, 3210 (1984). The results are summarized in the following table in which the data for NCO-700 (Arzneimittel Forschung/Drug Research 36, 190 (1986)) and for MDL 28170 (Biochemical and Biophysical Research Communications, 157, 1117 (1988)) are those disclosed in the references.

calpain = conditions: cited from earlier work
calpain I = biological target: T2, calpain I (Homo sapiens, UniProt P07384); test: conversion of 80KDa calpain I to 76KDa form in erythrocyte incubated with calcium; assay type: cell-based; conditions: human erythrocyte incubated in the presence of calcium
T2 construct: endogenous in cells; host or cells: human erythrocyte
T2 sequence (P07384 1-714): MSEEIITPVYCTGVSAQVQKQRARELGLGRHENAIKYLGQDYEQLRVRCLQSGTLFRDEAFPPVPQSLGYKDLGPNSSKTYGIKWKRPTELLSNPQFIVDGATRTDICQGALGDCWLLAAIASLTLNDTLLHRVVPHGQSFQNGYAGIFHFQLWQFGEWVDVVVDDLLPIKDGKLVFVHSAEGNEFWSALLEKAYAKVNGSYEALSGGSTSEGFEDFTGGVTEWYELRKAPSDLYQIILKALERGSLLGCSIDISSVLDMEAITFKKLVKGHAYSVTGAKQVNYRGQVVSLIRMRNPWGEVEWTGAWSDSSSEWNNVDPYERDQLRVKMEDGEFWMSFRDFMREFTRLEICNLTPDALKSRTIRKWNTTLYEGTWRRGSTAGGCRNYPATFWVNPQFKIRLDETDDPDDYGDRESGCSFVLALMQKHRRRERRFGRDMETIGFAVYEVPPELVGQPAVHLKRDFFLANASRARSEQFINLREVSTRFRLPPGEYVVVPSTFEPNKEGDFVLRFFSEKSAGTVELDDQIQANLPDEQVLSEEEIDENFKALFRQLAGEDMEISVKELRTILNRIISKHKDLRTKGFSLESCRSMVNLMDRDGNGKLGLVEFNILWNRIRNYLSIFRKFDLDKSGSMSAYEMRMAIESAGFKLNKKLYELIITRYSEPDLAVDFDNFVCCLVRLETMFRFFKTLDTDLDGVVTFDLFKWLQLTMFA
T2 sequence (P04632 1-268 partner): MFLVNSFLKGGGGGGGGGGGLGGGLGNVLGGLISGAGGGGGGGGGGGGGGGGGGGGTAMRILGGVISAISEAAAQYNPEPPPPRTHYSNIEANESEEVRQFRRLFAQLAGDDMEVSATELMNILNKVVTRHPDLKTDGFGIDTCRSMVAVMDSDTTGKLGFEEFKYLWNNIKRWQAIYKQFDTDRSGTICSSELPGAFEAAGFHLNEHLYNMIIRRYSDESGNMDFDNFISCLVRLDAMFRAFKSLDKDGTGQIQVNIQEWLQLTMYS
Text: Calpain I is partially purified from post-mortem brain. Fraction containing crude calpain I is subjected to electrophoresis, and reacted with monoclonal antibody to human calpain I (Biochemical Journal, 246, 481 (1987); Biochemical Journal, 261, 1039 (1989)) to show three bands. Molecular weights of these bands are 80KDa, 78KDa, and 76KDa, respectively, and are identical to those in erythrocyte (Biochemical Journal, 246, 482 (1987); Biochemical Journal, 261, 1039 (1989)). When human erythrocyte is incubated in the presence of calcium, the 80KDa band disappears and the 76KDa band appears. This reaction is inhibited by leupeptine which is a calpain inhibitor. Furthermore, there exists a good correlation between the amount of the 76KDa protein and the enzyme activity. […] This transformation from 80KDa to 76KDa in the presence of calcium can also be observed with slice specimens of post-mortem human brain.

In the case of CC(C)CCNC(=O)[C@H](CC(C)C)NC(=O)[C@H]1O[C@@H]1C(=O)O [E-64-c], the LD₅₀ (mouse; po) is given as greater than 2000 mg/kg.

In the case of CCOC(=O)[C@H]1O[C@@H]1C(=O)N[C@@H](CC(C)C)C(=O)NCCC(C)C [E-64-d], the LD₅₀ (mouse; po) is given as greater than 2000 mg/kg.

For CC(C)CC(NC(=O)[C@H]1O[C@@H]1C(=O)O)C(=O)NCCCCNC(=N)N (some centres unmarked) [E-64], the IC50 (m-calpain) is given as 960 nM and the LD₅₀ (mouse; po) is given as greater than 2000 mg/kg.

For CC(C)[C@H](NC(=O)OCc1ccccc1)C(=O)N[C@H](C=O)Cc1ccccc1 [MDL 28170] (Cbz-Val-Phe-aldehyde), the Ki (calpain; value disclosed in Biochemical and Biophysical Research Communications, 157, 1117 (1988), read-out: calpain inhibitory activity Ki) is given as 7 nM.

For CCOC(=O)[C@@H]1O[C@H]1C(=O)NC(CC(C)C)C(=O)N1CCN(Cc2ccc(OC)c(OC)c2OC)CC1.CCOC(=O)[C@@H]1O[C@H]1C(=O)NC(CC(C)C)C(=O)N1CCN(Cc2ccc(OC)c(OC)c2OC)CC1.O=S(=O)(O)O (some centres unmarked) [NCO-700], the LD₅₀ (mouse; iv) is listed as 374 mg/kg and the IC50 (calpain; value disclosed in Arzneimittel Forschung/Drug Research 36, 190 (1986), read-out: calpain inhibitory activity IC₅₀) is listed as 46000 nM.

For CCCCC(C=O)NC(=O)C(CC(C)C)NC(=O)OCc1ccccc1 (centres unmarked) [carpeptine], the IC50 (m-calpain) was 46 nM.

In the case of NC(N)=NCCCCNC(=O)[C@H](Cc1ccccc1)NC(=O)C1OC1C(=O)O (some centres unmarked) [estatine A], the LD₅₀ (mouse; ip) is listed as greater than 400 mg/kg.

For CC(=O)NC(CC(C)C)C(=O)NC(CC(C)C)C(=O)NC(C=O)CCCNC(=N)N (centres unmarked) [leupeptine], the IC50 (m-calpain) was 360 nM and the “disappearance of 80KDa band and appearance of 76KDa band of calpain I” value (calpain I) was “inhibited”.
